From patent US12077503B2, “Substituted cyclic amides and their use as herbicides” (FMC CORPORATION, priority 2015, dated 2024)

How the values were obtained:
Assay type in all cases: in vivo
corn (Zea mays) = test: Test A postemergence; conditions: Zea mays, post-emergence, 240 h
Method in brief: (§1)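 Seeded soil received test chemicals as a preemergence directed spray, and seedlings at one to two leaves, 2–10 cm tall, received them postemergence, in a non-phytotoxic, surfactant-containing solvent mixture. Pots were held in a greenhouse for approximately 10 d, then rated for injury from 0, no effect, to 100, complete control.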

[1] = tested on: giant foxtail (Setaria faberii); test: Test A postemergence; conditions: Setaria faberi, post-emergence, 240 h
Method in brief: as §1

[2] = tested on: ryegrass, Italian (Italian ryegrass, Lolium multiflorum); test: Test A postemergence; conditions: Lolium multiflorum, post-emergence, 240 h
Method in brief: as §1

[3] = tested on: wheat (Triticum aestivum); test: Test A postemergence; conditions: Triticum aestivum, post-emergence, 240 h
Method in brief: as §1

[4] = tested on: ragweed (common ragweed, Ambrosia elatior); test: Test A postemergence; conditions: Ambrosia artemisiifolia, post-emergence, 240 h
Method in brief: as §1

[5] = tested on: blackgrass (Alopecurus myosuroides); test: Test A postemergence; conditions: Alopecurus myosuroides, post-emergence, 240 h
Method in brief: as §1

[6] = tested on: Galium (catchweed bedstraw, Galium aparine); test: Test A postemergence; conditions: Galium, post-emergence, 240 h
Method in brief: as §1

[7] = tested on: barnyardgrass (Echinochloa crus-galli); test: Test A postemergence; conditions: Echinochloa crus-galli, post-emergence, 240 h
Method in brief: as §1

[8] = tested on: pigweed (Amaranthus retroflexus); test: Test A postemergence; conditions: Amaranthus retroflexus, post-emergence, 240 h
Method in brief: as §1

Kochia (Kochia scoparia) [9] = test: Test A postemergence; conditions: Bassia scoparia, post-emergence, 240 h
Method in brief: as §1

[10] = tested on: giant foxtail (Setaria faberii); test: Test A preemergence; conditions: Setaria faberi, pre-emergence, 240 h, 0 to 100 scale where 0 is no effect and 100 is complete control, read-out: Foxtail, Giant plant response rating
Method in brief: as §1

[11] = tested on: ryegrass, Italian (Italian ryegrass, Lolium multiflorum); test: Test A preemergence; conditions: Lolium multiflorum, pre-emergence, 240 h, 0 to 100 scale where 0 is no effect and 100 is complete control, read-out: Ryegrass, Italian plant response rating
Method in brief: as §1

[12] = tested on: ragweed (common ragweed, Ambrosia elatior); test: Test A preemergence; conditions: Ambrosia artemisiifolia, pre-emergence, 240 h, 0 to 100 scale where 0 is no effect and 100 is complete control, read-out: Ragweed plant response rating
Method in brief: as §1

[13] = tested on: barnyardgrass (Echinochloa crus-galli); test: Test A preemergence; conditions: Echinochloa crus-galli, pre-emergence, 240 h, 0 to 100 scale where 0 is no effect and 100 is complete control, read-out: Barnyardgrass plant response rating
Method in brief: as §1

[14] = tested on: pigweed (Amaranthus retroflexus); test: Test A preemergence; conditions: Amaranthus retroflexus, pre-emergence, 240 h, 0 to 100 scale where 0 is no effect and 100 is complete control, read-out: Pigweed plant response rating
Kochia (Kochia scoparia) [15] = test: Test A preemergence; conditions: Bassia scoparia, pre-emergence, 240 h, 0 to 100 scale where 0 is no effect and 100 is complete control, read-out: Kochia plant response rating
Method in brief: as §1

rice (Oryra sativa) = test: Test B flooded paddy test; conditions: Oryza sativa, 250 g ai/ha, Flood; 0 to 100 scale where 0 is no effect and 100 is complete control; read-out: Rice plant response rating
Method in brief: (§2)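 Greenhouse paddy pots with 2-leaf stage plants received compound by direct addition to floodwater 3 cm deep, kept at that level. Scored visually at 13–15 d versus controls (0 no effect; 100 complete control).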

[16] = tested on: sedge, umbrella (small-flower umbrella sedge, Cyperus difformis); test: Test B flooded paddy test; conditions: Cyperus difformis, 250 g ai/ha, Flood; 0 to 100 scale where 0 is no effect and 100 is complete control; read-out: Sedge, Umbrella plant response rating
Method in brief: as §2

[17] = tested on: barnyardgrass (Echinochloa crus-galli); test: Test B flooded paddy test; conditions: Echinochloa crus-galli, 250 g ai/ha, Flood; 0 to 100 scale where 0 is no effect and 100 is complete control; read-out: Barnyardgrass plant response rating
Method in brief: as §2

[18] = tested on: ducksalad (Heteranthera limosa); test: Test B flooded paddy test; conditions: Heteranthera limosa, 250 g ai/ha, Flood; 0 to 100 scale where 0 is no effect and 100 is complete control; read-out: Ducksalad plant response rating
Method in brief: as §2

[19] = 125 g ai/ha, preemergence, approx. 10 d

With `CN1CC(c2cccc(C(F)(F)F)c2)C(C(=O)Nc2ccccc2C(C)(C)O)C1=O` (stereo not drawn) [Compound 1146] the plant injury at 125 g/ha (corn (Zea mays); 125 g ai/ha, postemergence, visual injury on 0 to 100 scale (0 no effect, 100 complete control), approx. 10 d, read-out: Corn plant response rating) was 30%, the Corn plant response rating (crop injury, 0 = no effect, 100 = complete kill) at 31 g/ha (corn (Zea mays); Postemergence, 31 g ai/ha, visual injury after approx. 10 d, 0 to 100 scale, 0 no effect, 100 complete control) was 0% and the pest or weed control at 125 g/ha ([1]; 125 g ai/ha, postemergence, visual injury on 0 to 100 scale (0 no effect, 100 complete control), approx. 10 d, read-out: Foxtail, Giant plant response rating) was 20%. It also gave a pest or weed control at 31 g/ha ([1]; Postemergence, 31 g ai/ha, visual injury after approx. 10 d, 0 to 100 scale, 0 no effect, 100 complete control, read-out: Plant response rating, Foxtail, Giant) of 0%, a pest or weed control at 125 g/ha ([2]; 125 g ai/ha, postemergence, visual injury vs untreated controls after approx. 10 d, 0 = no effect, 100 = complete control, read-out: Ryegrass, Italian plant response rating (0 to 100 scale)) of 0% and a pest or weed control at 31 g/ha ([2]; Postemergence, 31 g ai/ha, visual injury after approx. 10 d, 0 to 100 scale, 0 no effect, 100 complete control, read-out: Plant response rating, Ryegrass, Italian) of 0%. For the same compound, the plant injury at 125 g/ha ([3]; 125 g ai/ha, postemergence, visual injury vs untreated controls after approx. 10 d, 0 = no effect, 100 = complete control, read-out: Wheat plant response rating (0 to 100 scale)) was 0%, the plant injury at 31 g/ha ([3]; Postemergence, 31 g ai/ha, visual injury after approx. 10 d, 0 to 100 scale, 0 no effect, 100 complete control, read-out: Plant response rating, Wheat) was 0% and the pest or weed control at 125 g/ha ([4]; 125 g ai/ha, postemergence, visual injury vs untreated controls after approx. 10 d, 0 = no effect, 100 = complete control, read-out: Ragweed plant response rating (0 to 100 scale)) was 0%. The pest or weed control at 31 g/ha ([4]; Postemergence, 31 g ai/ha, visual injury after approx. 10 d, 0 to 100 scale, 0 no effect, 100 complete control, read-out: Plant response rating, Ragweed) was 0%, the pest or weed control at 125 g/ha ([5]; 125 g ai/ha, postemergence, visual injury on 0 to 100 scale (0 no effect, 100 complete control), approx. 10 d, read-out: Blackgrass plant response rating) was 0% and the pest or weed control at 31 g/ha ([5]; Postemergence, 31 g ai/ha, visual injury after approx. 10 d, 0 to 100 scale, 0 no effect, 100 complete control, read-out: Plant response rating, Blackgrass) was 0%. For the same compound, the pest or weed control at 125 g/ha ([6]; 125 g ai/ha, postemergence, visual injury on 0 to 100 scale (0 no effect, 100 complete control), approx. 10 d, read-out: Galium plant response rating) was 0%, the pest or weed control at 31 g/ha ([6]; Postemergence, 31 g ai/ha, visual injury after approx. 10 d, 0 to 100 scale, 0 no effect, 100 complete control, read-out: Plant response rating, Galium) was 0% and the pest or weed control at 125 g/ha ([7]; 125 g ai/ha, postemergence, visual injury on 0 to 100 scale (0 no effect, 100 complete control), approx. 10 d, read-out: Barnyardgrass plant response rating) was 40%. It also gave a pest or weed control at 31 g/ha ([7]; Postemergence, 31 g ai/ha, visual injury after approx. 10 d, 0 to 100 scale, 0 no effect, 100 complete control, read-out: Plant response rating, Barnyardgrass) of 0%, a pest or weed control at 125 g/ha ([8]; 125 g ai/ha, postemergence, visual injury vs untreated controls after approx. 10 d, 0 = no effect, 100 = complete control, read-out: Pigweed plant response rating (0 to 100 scale)) of 0% and a pest or weed control at 31 g/ha ([8]; Postemergence, 31 g ai/ha, visual injury after approx. 10 d, 0 to 100 scale, 0 no effect, 100 complete control, read-out: Plant response rating, Pigweed) of 0%. It also gave a pest or weed control at 125 g/ha (Kochia (Kochia scoparia) [9]; 125 g ai/ha, postemergence, visual injury on 0 to 100 scale (0 no effect, 100 complete control), approx. 10 d, read-out: Kochia plant response rating) of 0%, a pest or weed control at 31 g/ha (Kochia (Kochia scoparia) [9]; Postemergence, 31 g ai/ha, visual injury after approx. 10 d, 0 to 100 scale, 0 no effect, 100 complete control, read-out: Plant response rating, Kochia) of 0% and a pest or weed control at 31 g/ha ([10]; 31 g ai/ha, Preemergence) of 20%. The pest or weed control at 125 g/ha [10, 19] was 80%, the pest or weed control at 31 g/ha ([11]; 31 g ai/ha, Preemergence) was 0% and the pest or weed control at 125 g/ha [11, 19] was 30%. It also gave a pest or weed control at 31 g/ha ([12]; 31 g ai/ha, Preemergence) of 0%, a pest or weed control at 125 g/ha [12, 19] of 0% and a pest or weed control at 31 g/ha ([13]; 31 g ai/ha, Preemergence) of 50%. For the same compound, the pest or weed control at 125 g/ha [13, 19] was 70%, the pest or weed control at 31 g/ha ([14]; 31 g ai/ha, Preemergence) was 0% and the pest or weed control at 125 g/ha [14, 19] was 0%. The pest or weed control at 31 g/ha (Kochia (Kochia scoparia) [15]; 31 g ai/ha, Preemergence) was 0%, the pest or weed control at 125 g/ha (Kochia (Kochia scoparia) [15]; [19]) was 0% and the pest or weed control at 250 g/ha (rice (Oryra sativa)) was 0%. It also gave a pest or weed control at 250 g/ha [16] of 50%, a pest or weed control at 250 g/ha [17] of 45% and a pest or weed control at 250 g/ha [18] of 0%.
